The values below come from ChEMBL document CHEMBL1909046, “DrugMatrix in vitro pharmacology data”.

The structures appear in SMILES notation. pIC50, pKi: −log10 of the molar value.

Assay [1] has as its target Estrogen receptor beta (Homo sapiens, UniProt Q92731). To be noted: sf9. Also: in other assays of this panel Not Active means under 50% inhibition at 10 µM.
Assay [2] in a line: DRUGMATRIX: GABAA, Flunitrazepam, Central radioligand binding (ligand: [3H] Flunitrazepam). The class given is cell membranes, Rattus norvegicus, Wistar, Brain, Membrane. The settings on record: Not Active = under 50% inhibition at 10 µM; for pIC50: read-out: IC50; for pKi: read-out: Ki.
Assay [3] concerns the target Aldo-keto reductase family 1 member B1 (Rattus norvegicus, UniProt P07943). The experiment in a line: biochemical. It is filed as tissue-based, Lens of camera-type eye.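 Also: inhibition of aldose reductase enzyme activity, measured with DL-glyceraldehyde as the substrate; in other assays of this panel Not Active means under 50% inhibition at 10 µM.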
Assay [4] can be described thus: DRUGMATRIX: Calcium Channel Type L, Phenylalkylamine radioligand binding (ligand: [3H] (-)-Desmethoxyverapamil (D-888)). The class given is cell membranes, Rattus norvegicus, Wistar, Brain, Membrane. To be noted: Not Active = under 50% inhibition at 10 µM.
Assay [5] has as its target Mitogen-activated protein kinase 14 (Homo sapiens, UniProt Q16539). Further details: species or system Escherichia coli.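 Also: inhibition of p38alpha enzyme activity in a biochemical kinase assay, with myelin basic protein serving as substrate; in other assays of this panel Not Active means under 50% inhibition at 10 µM.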
Assay [6] addresses T1, 3-hydroxy-3-methylglutaryl-coenzyme A reductase (Homo sapiens, UniProt P04035).
T1 sequence (P04035 whole entry): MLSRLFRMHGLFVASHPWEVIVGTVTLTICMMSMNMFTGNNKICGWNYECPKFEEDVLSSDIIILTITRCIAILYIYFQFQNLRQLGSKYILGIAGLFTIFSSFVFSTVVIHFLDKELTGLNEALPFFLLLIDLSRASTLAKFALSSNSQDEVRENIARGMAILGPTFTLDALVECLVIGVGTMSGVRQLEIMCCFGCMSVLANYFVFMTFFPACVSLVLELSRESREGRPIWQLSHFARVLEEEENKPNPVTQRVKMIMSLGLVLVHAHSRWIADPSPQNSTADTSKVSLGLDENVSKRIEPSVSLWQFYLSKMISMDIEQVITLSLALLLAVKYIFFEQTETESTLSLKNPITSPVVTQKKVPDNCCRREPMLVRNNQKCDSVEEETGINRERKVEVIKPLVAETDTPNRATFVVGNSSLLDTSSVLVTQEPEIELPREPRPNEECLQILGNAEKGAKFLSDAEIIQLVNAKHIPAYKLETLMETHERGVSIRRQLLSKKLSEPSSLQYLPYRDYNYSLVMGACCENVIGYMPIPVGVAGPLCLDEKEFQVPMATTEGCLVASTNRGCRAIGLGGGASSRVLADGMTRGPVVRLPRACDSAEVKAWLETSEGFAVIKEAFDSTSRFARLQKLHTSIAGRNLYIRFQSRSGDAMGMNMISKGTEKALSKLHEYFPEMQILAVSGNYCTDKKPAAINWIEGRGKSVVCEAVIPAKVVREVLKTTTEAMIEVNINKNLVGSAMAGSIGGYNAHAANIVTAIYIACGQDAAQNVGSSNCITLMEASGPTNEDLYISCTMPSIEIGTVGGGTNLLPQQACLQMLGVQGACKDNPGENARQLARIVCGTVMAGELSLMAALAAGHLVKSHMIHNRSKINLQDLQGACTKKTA
Further details: species or system Escherichia coli.

Assay [7] is described as follows: DRUGMATRIX: Purinergic P2X radioligand binding (ligand: [3H] alpha, beta-Methylene-ATP). The settings on record: Not Active = under 50% inhibition at 10 µM. The class given is cell membranes, Oryctolagus cuniculus, New Zealand albino, Urinary bladder, Membrane.

Mitogen-activated protein kinase 14, sequence (Q16539 whole entry): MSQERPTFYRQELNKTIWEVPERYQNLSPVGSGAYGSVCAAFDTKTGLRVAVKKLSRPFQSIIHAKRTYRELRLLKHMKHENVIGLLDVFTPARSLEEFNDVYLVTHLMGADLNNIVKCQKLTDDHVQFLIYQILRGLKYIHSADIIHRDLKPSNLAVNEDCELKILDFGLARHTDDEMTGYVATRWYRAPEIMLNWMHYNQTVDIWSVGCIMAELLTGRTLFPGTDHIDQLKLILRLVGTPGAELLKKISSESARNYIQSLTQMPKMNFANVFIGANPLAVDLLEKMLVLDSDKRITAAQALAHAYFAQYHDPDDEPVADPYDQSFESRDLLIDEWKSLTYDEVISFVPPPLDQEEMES
Estrogen receptor beta, sequence (Q92731 whole entry): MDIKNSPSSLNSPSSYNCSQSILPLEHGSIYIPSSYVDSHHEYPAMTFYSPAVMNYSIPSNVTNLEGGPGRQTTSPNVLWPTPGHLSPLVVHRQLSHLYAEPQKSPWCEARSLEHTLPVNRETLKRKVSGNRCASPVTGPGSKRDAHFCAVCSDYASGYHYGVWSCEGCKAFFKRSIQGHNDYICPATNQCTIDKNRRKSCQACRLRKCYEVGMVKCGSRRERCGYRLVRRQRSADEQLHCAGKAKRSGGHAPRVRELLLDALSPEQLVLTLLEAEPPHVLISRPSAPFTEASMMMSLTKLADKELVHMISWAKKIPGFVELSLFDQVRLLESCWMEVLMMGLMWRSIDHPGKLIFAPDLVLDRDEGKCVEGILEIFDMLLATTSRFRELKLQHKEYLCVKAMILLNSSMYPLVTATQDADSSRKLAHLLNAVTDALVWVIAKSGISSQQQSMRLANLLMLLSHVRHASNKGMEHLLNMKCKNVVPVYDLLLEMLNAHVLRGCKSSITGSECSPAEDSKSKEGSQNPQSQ

With `CCOc1nc2cccc(C(=O)O)c2n1Cc1ccc(-c2ccccc2-c2nnn[nH]2)cc1`, the IC50 entry in assay [1], in assay [2], in assay [3], in assay [4], in assay [5] and in assay [6] was “Not Active” in each case. Moreover, in assay [7], the IC50 entry is recorded as “Not Active”. The Ki entry in assay [2], in assay [4] and in assay [7] was “Not Active” in each case.

On to `O=C(O)CCCc1cccs1`, for which the IC50 entry in assay [1], in assay [2], in assay [3], in assay [4], in assay [5] and in assay [6] was “Not Active” each time. The IC50 result in assay [7] is given as “Not Active”. In addition, the Ki result in assay [2], in assay [4] and in assay [7] was “Not Active” each time.

A word on the pIC50: it is −log10 of the IC50, conventionally taken in molar units. As for `O=C(c1ccccc1F)N1CCC(Cc2ccccc2)CC1`, the IC50 result in assay [1], in assay [2], in assay [3], in assay [4], in assay [6] and in assay [7] was “Not Active” each time. In addition, the Ki entry in assay [2], in assay [4] and in assay [7] was “Not Active” in each case. Further, in assay [5] (read-out: IC50), the pIC50 is 6.27.

Regarding `CC(O)COC[C@H]1O[C@@H]2O[C@H]3[C@H](O)[C@@H](O)[C@@H](O[C@H]4[C@H](O)[C@@H](O)[C@@H](O[C@H]5[C@H](O)[C@@H](O)[C@@H](O[C@H]6[C@H](O)[C@@H](O)[C@@H](O[C@H]7[C@H](O)[C@@H](O)[C@@H](O[C@H]8[C@H](O)[C@@H](O)[C@@H](O[C@H]1[C@H](O)[C@H]2O)O[C@@H]8COCC(C)O)O[C@@H]7COCC(C)O)O[C@@H]6COCC(C)O)O[C@@H]5COCC(C)O)O[C@@H]4COCC(C)O)O[C@@H]3COCC(C)O` (stereo partly drawn) [2-HYDROXYPROPYL-BETA-CYCLODEXTRIN], the IC50 entry in assay [1], in assay [2], in assay [3], in assay [4], in assay [5] and in assay [6] was “Not Active” throughout. Moreover, in assay [7], the IC50 result is given as “Not Active”. The Ki result in assay [2], in assay [4] and in assay [7] was “Not Active” throughout.

Regarding `O=C(O)P(=O)(O)O` [FOSCARNET], the IC50 entry in assay [2], in assay [3], in assay [4], in assay [5], in assay [6] and in assay [7] was “Not Active” in each case. The Ki entry in assay [2], in assay [4] and in assay [7] was “Not Active” throughout.

Regarding `O=c1c(-c2ccc(O)cc2)coc2cc(O)cc(O)c12` [GENISTEIN], the IC50 result in assay [2], in assay [4], in assay [5], in assay [6] and in assay [7] was “Not Active” in each case. Moreover, the Ki entry in assay [2], in assay [4] and in assay [7] was “Not Active” each time. In addition, in assay [3] (read-out: IC50), the pIC50 was 4.35.

Turning to `C[N+](C)(C)C[C@H](O)CC(=O)[O-]` [LEVOCARNITINE], the IC50 entry in assay [2], in assay [3], in assay [4], in assay [5], in assay [6] and in assay [7] was “Not Active” throughout. Also, the Ki entry in assay [2], in assay [4] and in assay [7] was “Not Active” each time.

As for `C[C@H]1COc2c(N3CCN(C)CC3)c(F)cc3c(=O)c(C(=O)O)cn1c23.C[C@H]1COc2c(N3CCN(C)CC3)c(F)cc3c(=O)c(C(=O)O)cn1c23.O` [LEVOFLOXACIN], the IC50 entry in assay [2], in assay [3], in assay [4], in assay [5], in assay [6] and in assay [7] was “Not Active” each time. Further, the Ki result in assay [2], in assay [4] and in assay [7] was “Not Active” throughout.

Turning to `CCn1cc(C(=O)O)c(=O)c2cc(F)c(N3CCNC(C)C3)c(F)c21` (stereo unspecified) [LOMEFLOXACIN], the IC50 result in assay [2], in assay [3], in assay [4], in assay [5], in assay [6] and in assay [7] was “Not Active” each time. The Ki result in assay [2], in assay [4] and in assay [7] was “Not Active” throughout.

With `CN(C)C(=N)NC(=N)N` [METFORMIN], the IC50 result in assay [2], in assay [3], in assay [4], in assay [5], in assay [6] and in assay [7] was “Not Active” in each case. Besides, the Ki result in assay [2], in assay [4] and in assay [7] was “Not Active” in each case.

With `CN(C)C(=O)Oc1cccc([N+](C)(C)C)c1.[Br-]` [NEOSTIGMINE BROMIDE], the IC50 result in assay [2], in assay [3], in assay [4], in assay [5], in assay [6] and in assay [7] was “Not Active” each time. Moreover, the Ki result in assay [2], in assay [4] and in assay [7] was “Not Active” in each case.

By pKi is commonly meant the Ki on a negative log10 scale, so that one unit is a factor of ten. For `CN1C(=O)CN=C(c2ccccc2)c2cc([N+](=O)[O-])ccc21` [NIMETAZEPAM], the pIC50 in assay [2] was 6.98. The pKi in assay [2] is 7.07. Also, the IC50 entry in assay [3], in assay [4], in assay [5], in assay [6] and in assay [7] was “Not Active” in each case. The Ki result in assay [4] and in assay [7] was “Not Active” throughout.

On to `COc1ccc2c(c1OC)C(=O)O[C@@H]2[C@H]1c2c(cc3c(c2OC)OCO3)CCN1C` [NOSCAPINE], for which the IC50 result in assay [2], in assay [3], in assay [4], in assay [5], in assay [6] and in assay [7] was “Not Active” in each case. The Ki result in assay [2], in assay [4] and in assay [7] was “Not Active” each time.

Take `N=C(N)c1ccc(OCCCCCOc2ccc(C(=N)N)cc2)cc1` [PENTAMIDINE]: the IC50 entry in assay [2], in assay [3], in assay [5], in assay [6] and in assay [7] was “Not Active” throughout. Besides, the Ki result in assay [2] and in assay [7] was “Not Active” in each case. Besides, the pIC50 in assay [4] (read-out: IC50) was 5.86. In addition, the pKi in assay [4] (read-out: Ki) is 5.87.

Consider `NNCCc1ccccc1` [PHENELZINE], for which the IC50 result in assay [2], in assay [3], in assay [4], in assay [5], in assay [6] and in assay [7] was “Not Active” throughout. In addition, the Ki result in assay [2], in assay [4] and in assay [7] was “Not Active” in each case.

Regarding `CCCNC(C)C(=O)Nc1ccccc1C` (stereo unspecified) [PRILOCAINE], the IC50 result in assay [2], in assay [3], in assay [4], in assay [5], in assay [6] and in assay [7] was “Not Active” each time. The Ki result in assay [2], in assay [4] and in assay [7] was “Not Active” throughout.

On to `C[C@]12C=CC(=O)C=C1CC[C@H]1[C@@H]3C[C@@H](O)[C@](O)(C(=O)CO)[C@@]3(C)C[C@H](O)[C@@]12F` [TRIAMCINOLONE], for which the IC50 result in assay [2], in assay [3], in assay [4], in assay [5], in assay [6] and in assay [7] was “Not Active” in each case. For the same molecule, the Ki entry in assay [2], in assay [4] and in assay [7] was “Not Active” throughout.

As to `CCN(C(C)=O)c1cccc(-c2ccnc3c(C#N)cnn23)c1` [ZALEPLON], the pIC50 in assay [2] is 6.39. In assay [2], the pKi was 6.47. Moreover, the IC50 result in assay [3], in assay [4], in assay [5], in assay [6] and in assay [7] was “Not Active” throughout. The Ki entry in assay [4] and in assay [7] was “Not Active” in each case.
